Values of other authors as cited in PMC12697872, “Rethinking the AI Paradigm for Solubility Prediction of Drug‑Like Compounds with Dual‐Perspective Modeling and Experimental Validation” (Advanced Science, 2025).
Where two headings read alike, the source gives them in different places.

Conditions: experimental aqueous solubility as logS, cited from earlier work
[1] = sheet "DrugBank", ref DrugBank database
[2] = sheet "DrugBank" of Supplement 2, ref DrugBank

In the case of `N[C@@H]1[C@H]2CN(c3nc4c(cc3F)c(=O)c(C(=O)O)cn4-c3ccc(F)cc3F)C[C@@H]12` [Trovafloxacin], the ex_logS [1] is given as -4.53.

In the case of `CC(C)n1c(/C=C/C(O)CC(O)CC(=O)O)c(-c2ccc(F)cc2)c2ccccc21` (stereo not shown) [Fluvastatin], the ex_logS [1] is listed as -5.952.

For `CC(C)(C)NCC(O)COc1cccc2c1CC(O)C(O)C2` (stereo not shown) [Nadolol], the ex_logS [2] is listed as -1.57.

For `O=C(C1CCCCC1)N1CC(=O)N2CCc3ccccc3C2C1` (stereo not shown) [Praziquantel], the ex_logS [2] is listed as -2.893.

For `CC(C(=O)O)C(=O)O` [Methylmalonic Acid], the ex_logS [2] is given as 0.7597.

For `Nc1ccc(S(=O)(=O)Nc2ncccn2)cc1` [Sulfadiazine], the ex_logS [2] is listed as -3.512.

In the case of `COc1ccc2c(c1)N(C[C@H](C)CN(C)C)c1ccccc1S2` [Methotrimeprazine], the ex_logS [1] is listed as -4.215.

For `Cc1c(OCC(F)(F)F)ccnc1C[S@@+]([O-])c1nc2ccccc2[nH]1` [Dexlansoprazole], the ex_logS [1] is listed as -3.245.

For `O=C(O)c1cccnc1C(=O)O` [Quinolinic Acid], the ex_logS [1] is given as -1.182.

In the case of `CN1CCCN=C1COC(=O)C(O)(c1ccccc1)C1CCCCC1` (stereo not shown) [Oxyphencyclimine], the ex_logS [2] is given as -4.717.

For `CCN(CC)C(=S)SSC(=S)N(CC)CC` [Disulfiram], the ex_logS [1] is listed as -4.86.

For `NC(=O)N/N=C/c1ccc([N+](=O)[O-])o1` [Nitrofural], the ex_logS [1] is given as -2.975.

For `CC(C)NCC1CCc2cc(CO)c([N+](=O)[O-])cc2N1` (stereo not shown) [Oxamniquine], the ex_logS [2] is given as -2.532.

For `CCOC(=O)c1ccc(O)cc1` [ethyl-p-hydroxybenzoate], the ex_logS [2] is given as -2.35.

In the case of `CCC(=O)O[C@]1(c2ccccc2)CCN(C)C[C@H]1CC` [Betameprodine], the ex_logS [1] is listed as -5.285.

In the case of `CN(C)[C@@H]1C(O)=C(C(N)=O)C(=O)[C@@]2(O)C(O)=C3C(=O)c4c(O)cccc4[C@@](C)(O)[C@H]3[C@H](O)[C@@H]12` [Oxytetracycline], the ex_logS [1] is listed as -3.168.

For `CCN(CC)CCOC(=O)c1ccc(N)cc1` [procaine], the ex_logS [2] is listed as -1.78.

For `O=C(OCCO)c1ccccc1O` [Glycol salicylate], the ex_logS [1] is listed as -1.143.

In the case of `COc1cc(C(=O)NCc2ccc(OCCN(C)C)cc2)cc(OC)c1OC` [Trimethobenzamide], the ex_logS [2] is given as -3.987.

In the case of `C[C@H](N)[C@@H](O)c1ccccc1` [Cathine], the ex_logS [1] is given as -0.8785.

For `CC(=O)Oc1ccccc1C(=O)O` [Acetylsalicylic acid], the ex_logS [2] is listed as -1.6122.

In the case of `Nc1ccn([C@@H]2CS[C@H](CO)O2)c(=O)n1` [Lamivudine], the ex_logS [2] is listed as -0.5152.

For `CCCSc1nc(N[C@@H]2C[C@H]2c2ccc(F)c(F)c2)c2nnn([C@@H]3C[C@H](OCCO)[C@@H](O)[C@H]3O)c2n1` [Ticagrelor], the ex_logS [1] is given as -4.718.

For `C1CCC(C(CC2CCCCN2)C2CCCCC2)CC1` (stereo not shown) [Perhexiline], the ex_logS [1] is given as -6.659.

In the case of `CCCCOC(=O)c1ccc(N)cc1` [Butamben], the ex_logS [1] is listed as -3.14.

For `N[C@@H](Cc1cc(I)c(Oc2cc(I)c(O)c(I)c2)c(I)c1)C(=O)O` [Levothyroxine], the ex_logS [1] is listed as -3.869.

In the case of `Cc1nc2n(c(=O)c1CCN1CCC(c3noc4cc(F)ccc34)CC1)CCCC2` [Risperidone], the ex_logS [1] is listed as -2.246.

In the case of `COc1ccc(-n2nc(C(N)=O)c3c2C(=O)N(c2ccc(N4CCCCC4=O)cc2)CC3)cc1` [Apixaban], the ex_logS [1] is given as -3.621.

For `CC(=O)Nc1ccc(O)cc1` [acetaminophen], the ex_logS [2] is given as -1.02.

In the case of `C=CCc1ccccc1OCC(O)CNC(C)C` (stereo not shown) [Alprenolol], the ex_logS [2] is listed as -2.659.

In the case of `COC(=O)C(c1ccccc1)C1CCCCN1` (stereo not shown) [Methylphenidate], the ex_logS [1] is listed as -2.269.

For `CNCCC=C1c2ccccc2CCc2ccccc21` [Nortriptyline], the ex_logS [1] is given as -5.481.

In the case of `NNC(=O)c1ccncc1` [Isoniazid], the ex_logS [1] is listed as 0.008966.

For `NCCCNCCSP(=O)(O)O` [Amifostine], the ex_logS [1] is given as 0.6691.

For `C[C@]12C/C(=C/O)C(=O)C[C@@H]1CC[C@@H]1[C@@H]2CC[C@@]2(C)[C@H]1CC[C@]2(C)O` [Oxymetholone], the ex_logS [2] is listed as -4.805.

For `COc1ccccc1OCC(O)COC(N)=O` (stereo not shown) [Methocarbamol], the ex_logS [1] is listed as -0.9845.

For `CCCCC(C)(O)C/C=C/[C@H]1[C@H](O)CC(=O)[C@@H]1CCCCCCC(=O)OC` (mixture of isomers) [Misoprostol], the ex_logS [1] is listed as -2.379.
